Results: patent US20060142312A1, “C6-aryl and heteroaryl substituted pyrido[2,3-D] pyrimidin-7-ones” (PFIZER INC, priority 2004, published 2006)

Test system: neointima formation
Conditions: in rats; cited from earlier work

Row | SMILES | inhibition of neointima formation
1 | COc1ccc(CNc2nc(N(CCO)CCO)nc3c2ncn3C(C)C)cc1 [CVT-313] | greater than 80%

Test system: not given
Conditions: not given

Row | SMILES | melting point [°C]
2 | O=C(O)CCNc1ncc2cc(Cc3ccccc3)c(=O)n(C3CCCC3)c2n1 [Example 52, 3-(6-Benzyl-8-cyclopentyl-7-oxo-7,8-dihydro-pyrido[2,3-d]pyrimidin-2-ylamino)-propionic acid] | 164 to 170
3 | Cc1cccc(Cc2cc3cnc(NC4CCC(N(C)C)CC4)nc3n(C3CCCC3)c2=O)c1 (stereo not shown) [Example 65, 8-Cyclopentyl-2-(4-dimethylamino-cyclohexylamino)-6-(3-methyl-benzyl)-8H-pyrido[2,3-d]pyrimidin-7-one] | 191 to 194
4 | CNc1ncc2cc(Cc3ccccc3)c(=O)n(C3CCCC3)c2n1 [Example 47, 6-Benzyl-8-cyclopentyl-2-methylamino-8H-pyrido[2,3-d]pyrimidin-7-one] | 144 to 146
5 | Cc1c(Cc2ccccc2)c(=O)n(C2CCCC2)c2nc(Nc3ccc(N4CCNCC4)cc3)ncc12 [Example 29, 6-Benzyl-8-cyclopentyl-5-methyl-2-(4-piperazin-1-yl-phenylamino)-8H-pyrido[2,3-d]pyrimidin-7-one] | 114
6 | O=c1c(Cc2ccccc2)cc2cnc(NCCCn3ccnc3)nc2n1C1CCCC1 [Example 50, 6-Benzyl-8-cyclopentyl-2-(3-imidazol-1-yl-propylamino)-8H-pyrido[2,3-d]pyrimidin-7-one] | 142 to 144
7 | O=c1c(Cc2ccccc2)cc2cnc(NC3CCCCC3)nc2n1C1CCCC1 [Example 41, 6-Benzyl-2-cyclohexylamino-8-cyclopentyl-8H-pyrido[2,3-d]pyrimidin-7-one] | 128 to 130
8 | CN(C)C1CCC(Nc2ncc3cc(Cc4ccccc4)c(=O)n(C4CCCC4)c3n2)CC1 (stereo not shown) [Example 40, 6-Benzyl-8-cyclopentyl-2-(4-dimethylamino-cyclohexylamino)-8H-pyrido[2,3-d]pyrimidin-7-one] | 167 to 170

Second part, the compound after the results:

Row | melting point [°C] | SMILES
9 | 174 to 181 | CC(C)c1ccc(Cc2cc3cnc(NC4CCC(N(C)C)CC4)nc3n(C3CCCC3)c2=O)cc1 (stereo not shown) [Example 68, 8-Cyclopentyl-2-(4-dimethylamino-cyclohexylamino)-6-(4-isopropyl-benzyl)-8H-pyrido[2,3-d]pyrimidin-7-one]
10 | 149 to 152 | CCCN1CCC(Nc2ncc3cc(Cc4nccs4)c(=O)n(C4CCCC4)c3n2)CC1 [Example 86, 8-Cyclopentyl-2-(1-propyl-piperidin-4-ylamino)-6-thiazol-2-ylmethyl-8H-pyrido[2,3-d]pyrimidin-7-one]
11 | 105 to 107 | CN(C)CCCCNc1ncc2cc(Cc3ccccn3)c(=O)n(C3CCCC3)c2n1 [Example 89, 8-Cyclopentyl-2-(4-dimethylamino-butylamino)-6-pyridin-2-ylmethyl-8H-pyrido[2,3-d]pyrimidin-7-one]
12 | 134 to 137 | Cc1ccccc1Cc1cc2cnc(NCCN3CCOCC3)nc2n(C2CCCC2)c1=O [Example 73, 8-Cyclopentyl-6-(2-methyl-benzyl)-2-(2-morpholin-4-yl-ethylamino)-8H-pyrido[2,3-d]pyrimidin-7-one]
13 | > 45 | Cc1ccccc1Cc1cc2cnc(NCCCN3CCN(C)CC3)nc2n(C2CCCC2)c1=O [Example 77, 8-Cyclopentyl-6-(2-methyl-benzyl)-2-[3-(4-methyl-piperazin-1-yl)-propylamino]-8H-pyrido[2,3-d]pyrimidin-7-one]
